{
  "source": "patent US20050032724A1",
  "about": "(priority 2001, published 2005)",
  "key": {"[1]": {"test_system": "human epithelial cervical cancer cell line KB 3-1", "format": "cell-based", "description": "(§1) The human epithelial cervical cancer cell line KB 3-1 with two subclones (KB 3-1 (MDR1^+++) and KB 3-1 (MDR1^+++, CYP3A5)) and the bladder cancer cell line RT112, also with subclone (RT112 (MDR1^+, UGT1A1)), were cultured in Dulbecco's Modified Eagle Medium (DMEM) including 3.7 g/l NaHCO3, 4.5 g/l D-Glucose, 1.028 g/l N-Acetyl-L-Alanyl-L-glutamine and supplemented with 10% fetal bovine, 1 mM Na-pyruvate and 1% non-essential amino acids. The human colon cancer cell line LS174T was cultured in Dulbecco's modified Eagle medium containing L-glutamine, pyridoxine hydrochloride and 25 mM Hepes buffer without phenol red, supplemented with 10% fetal bovine, 1 mM Na-pyruvate and 1% non-essential amino acids. All cells were incubated at 37° C. with 5% CO2 in a humidified atmosphere.\n(§2) Lower concentrated dilutions were prepared in PBS and cell culture medium.\n(§3) Cells were seeded in 96-well culture plates 24 h prior to treatment. With respect to differential growth rates KB 3-1 and RT112 cells were seeded at 700 cells/well, RT112 (MDR1^+, UGT1A1) at 1000 cells/well and KB 3-1 (MDR1^+++) and KB 3-1 (MDR1^+++, CYP3A5) at 1200 cells/well. LS174T were seeded at 1.0×10^4 cells/well. […] Four well were treated with the same drug dilution. Cells were incubated for 3 days at 37° C. in a humidified 5% CO2 atmosphere.\n(§4) A commercially available MTS assay system (Promega, Madison, USA) was used to determine growth inhibition and cell death according to the instructions of the manufacturer. Three days after adding the drugs, 20 μl of the combined MTS/PMS solution was added to each well of the 96-well culture plate. The plate was incubated for at least 45 min at 37° C. in a humidified 5% CO2 atmosphere and the absorbance at 492 nm was measured. The absorbance values of untreated control cells on each plate were set as 100% growth and used to calculate the remaining growth of drug treated cells. Untreated cells on the culture plates served as controls for unaffected growth and survival.\n(§5) The drug concentration effecting a 50% inhibition of cell growth was defined as the IC50."}, "[2]": {"test_system": "bladder cancer cell line RT112", "experiment": "MTS cytotoxicity assay, growth inhibition, RT112", "format": "cell-based, human", "settings": "RT112, 3 days treatment", "description": "as §1, §2\nCells were seeded in 96-well culture plates 24 h prior to treatment. […]\nas §4, with “Three days after adding the drugs, 20 μl of the combined MTS/PMS solution was added to each well of the 96-well culture plate.” left out, “Untreated cells on the culture plates served as controls for unaffected growth and survival.” left out"}, "[3]": {"test_system": "KB 3-1 (MDR1^+++) cells", "description": "as §1, §2, §3, §4, §5"}, "[4]": {"test_system": "KB 3-1 (MDR1^+++, CYP3A5) cells", "description": "as §1, §2, §3, §4, §5"}, "[5]": {"test_system": "RT112 (MDR1, UGT1A1) cells", "settings": "for IC50 (50% inhibition of cell growth): RT112 (MDR1, UGT1A1), 3 days treatment", "description": "as §1, §2, §3, §4, §5"}, "[6]": {"test_system": "human colon cancer cell line LS174T", "experiment": "MTS cytotoxicity assay, growth inhibition, LS174T", "format": "cell-based", "settings": "for IC50 (50% inhibition of cell growth): LS174T, 3 days treatment", "description": "as §1, §2, §3, §4, §5"}, "[7]": {"settings": "irinotecan therapy, dose-limiting toxicity; cited from earlier work"}, "[8]": {"settings": "mass balance studies; cited from earlier work"}, "[9]": {"settings": "within the first 60 days of treatment, colorectal cancer trials; cited from earlier work"}, "[10]": {"test_system": "MRP1 mRNA", "experiment": "MRP1 mRNA content in duodenal biopsies before and after rifampicin", "format": "in vivo, human", "settings": "healthy volunteers"}, "[11]": {"experiment": "Clinical study of peak plasma digoxin levels at steady state by MDR1 3435C>T genotype", "format": "in vivo, human", "settings": "14 healthy volunteers, oral digoxin, p=0.006 Mann Whitney U test", "source_text": "Furthermore, the influence of the MDR1 genotype on intestinal uptake-related pharmacokinetics of digoxin was investigated in a clinical study at the University Medical Center, Charite in Berlin. Maximal digoxin blood levels (Cmax) at steady state were correlated with the MDR1 3435C>T genotype 14 healthy volunteers after oral application of digoxin. […] (p=0.006, Mann Whitney U test) and reflects the impact of this polymorphism on digoxin pharmacokinetics."}},
  "note": "Entries after “also recorded” stand apart in the source; their conditions may differ. Where two headings read alike, the source gives them in different places.",
  "data": [
    {"compound": "CCc1c2c(nc3ccc(O)cc13)-c1cc3c(c(=O)n1C2)COC(=O)[C@]3(O)CC", "note": "[SN-38, 7-ethyl-10-hydroxycamptothecin]", "values": [
      {"measurement": "IC50 (50% inhibition of cell growth)", "setting": "[1]", "value": 0.025, "unit": "µg/mL"},
      {"measurement": "IC50 with R-Verapamil", "setting": "[1]", "value": 15, "unit": "ng/m"},
      {"measurement": "IC50 (50% inhibition of cell growth)", "setting": "[2]", "value": 0.004, "unit": "µg/mL"},
      {"measurement": "IC50 (50% inhibition of cell growth)", "setting": "[3]", "value": 0.2, "unit": "µg/mL"},
      {"measurement": "higher sensitivity after inhibition of MDR1 transport function with R-Verapamil", "setting": "[3]", "value": 10, "unit": "fold"},
      {"measurement": "increase of IC50 relative to KB 3-1", "setting": "[3]", "value": "at least 8 times"},
      {"measurement": "sensitivity with R-Verapamil", "setting": "[3]", "value": "as sensitive as KB 3-1 cells"},
      {"measurement": "IC50 (50% inhibition of cell growth)", "setting": "[4]", "value": "> 0.2", "unit": "µg/mL"},
      {"measurement": "higher resistance of RT112 (MDR1, UGT1A1) relative to RT112", "setting": "[5]", "value": 19, "unit": "fold"},
      {"measurement": "IC50 (50% inhibition of cell growth)", "setting": "[5]", "value": 0.075, "unit": "µg/mL"},
      {"measurement": "IC50 (50% inhibition of cell growth)", "setting": "[6]", "value": 0.005, "unit": "µg/mL"},
      {"measurement": "efficacy relative to CPT-11 (growth inhibition and cell death)", "setting": "[6]; stated for LS174T, RT112 and KB 3-1 together", "value": 1000, "unit": "fold"}
    ]},
    {"compound": "irinotecan [CPT-11]", "values": [
      {"measurement": "diarrhea, occurrence in patients", "setting": "[7]", "value": "up to 88%"},
      {"measurement": "total dose excreted in the feces", "setting": "[8]", "value": 64, "unit": "%"},
      {"measurement": "IC50 with R-Verapamil", "setting": "[1]; KB 3-1, 3 days, with R-Verapamil 10 μg/ml", "value": 4.5, "unit": "µg/mL"},
      {"measurement": "IC50 (50% inhibition of cell growth)", "setting": "[1]; KB 3-1, 3 days, without R-Verapamil", "value": 5, "unit": "µg/mL"},
      {"measurement": "IC50 (50% inhibition of cell growth)", "setting": "[2]", "value": 2.5, "unit": "µg/mL"},
      {"measurement": "IC50 with R-Verapamil", "setting": "[3]; KB 3-1 (MDR1+++), 3 days, with R-Verapamil 10 μg/ml", "value": 10, "unit": "µg/mL"},
      {"measurement": "IC50 (50% inhibition of cell growth)", "setting": "[3]; KB 3-1 (MDR1+++), 3 days, without R-Verapamil", "value": 85, "unit": "µg/mL"},
      {"measurement": "IC50 of RT112 (MDR1, UGT1A1) compared to RT112 cells", "setting": "[5]; RT112 (MDR1, UGT1A1) vs RT112, in words", "value": "two-times higher"},
      {"measurement": "IC50 (50% inhibition of cell growth)", "setting": "[5]", "value": 4, "unit": "µg/mL"},
      {"measurement": "increase of irinotecan toxicity-related mortality", "setting": "[9]", "value": "~3", "unit": "times"},
      {"measurement": "IC50 (50% inhibition of cell growth)", "setting": "[6]", "value": 1.5, "unit": "µg/mL"}
    ]},
    {"compound": "CO[C@H]1/C=C/O[C@@]2(C)Oc3c(C)c(O)c4c(O)c(c(/C=N/N5CCN(C)CC5)c(O)c4c3C2=O)NC(=O)/C(C)=C\\C=C\\[C@H](C)[C@H](O)[C@@H](C)[C@@H](O)[C@@H](C)[C@H](OC(C)=O)[C@@H]1C", "note": "[rifampicin]", "values": [
      {"measurement": "effect of rifampicin treatment on MRP1 mRNA expression", "setting": "[10]", "value": "no effect"}
    ]},
    {"compound": "COc1ccc(CCN(C)CCC[C@](C#N)(c2ccc(OC)c(OC)c2)C(C)C)cc1OC", "note": "[R-Verapamil]", "values": [
      {"measurement": "effect of addition of R-Verapamil on CPT-11 and SN-38 sensitivity", "setting": "[1]", "value": "only marginal effects"}
    ]},
    {"compound": "C[C@H]1O[C@@H](O[C@H]2[C@@H](O)C[C@H](O[C@H]3[C@@H](O)C[C@H](O[C@H]4CC[C@@]5(C)[C@H](CC[C@@H]6[C@@H]5C[C@@H](O)[C@]5(C)[C@@H](C7=CC(=O)OC7)CC[C@]65O)C4)O[C@@H]3C)O[C@@H]2C)C[C@H](O)[C@@H]1O", "note": "[digoxin]", "values": [
      {"measurement": "Maximal digoxin blood levels (Cmax) at steady state, homozygous T vs C/C MDR1 3435C>T genotype", "setting": "[11]", "value": "statistically significantly different; also recorded: statistically significantly lower"}
    ]}
  ]
}
